Test results as given in patent US9540366B2, “Ring-fused heterocyclic compound” (Kyowa Hakko Kirin Co., Ltd., priority 2012, dated 2017).
pIC50: −log10 of the molar value. Where two headings read alike, the source gives them in different places.

Target: T1, human Cav3.2 T-type Ca2+ channel (Homo sapiens, UniProt O95180)
T1 construct: expressed in transfected cells; host or cells: KJMGER8 cells (Namalwa cell-derived cell line)
Test: Inhibitory effect for intracellular calcium response via Cav3.2 T-type Ca2+ channels (FLIPR Calcium 3 Assay Kit)
Format: cell-based

[1] = human Cav3.2-expressing KJMGER8 cells (Namalwa-derived), calcium response induced by 5 mmol/L CaCl2, 3 μmol/L mibefradil as reference, read-out: IC50 for the human Cav3.2 T-type Ca2+ current

T1 sequence (O95180 whole entry): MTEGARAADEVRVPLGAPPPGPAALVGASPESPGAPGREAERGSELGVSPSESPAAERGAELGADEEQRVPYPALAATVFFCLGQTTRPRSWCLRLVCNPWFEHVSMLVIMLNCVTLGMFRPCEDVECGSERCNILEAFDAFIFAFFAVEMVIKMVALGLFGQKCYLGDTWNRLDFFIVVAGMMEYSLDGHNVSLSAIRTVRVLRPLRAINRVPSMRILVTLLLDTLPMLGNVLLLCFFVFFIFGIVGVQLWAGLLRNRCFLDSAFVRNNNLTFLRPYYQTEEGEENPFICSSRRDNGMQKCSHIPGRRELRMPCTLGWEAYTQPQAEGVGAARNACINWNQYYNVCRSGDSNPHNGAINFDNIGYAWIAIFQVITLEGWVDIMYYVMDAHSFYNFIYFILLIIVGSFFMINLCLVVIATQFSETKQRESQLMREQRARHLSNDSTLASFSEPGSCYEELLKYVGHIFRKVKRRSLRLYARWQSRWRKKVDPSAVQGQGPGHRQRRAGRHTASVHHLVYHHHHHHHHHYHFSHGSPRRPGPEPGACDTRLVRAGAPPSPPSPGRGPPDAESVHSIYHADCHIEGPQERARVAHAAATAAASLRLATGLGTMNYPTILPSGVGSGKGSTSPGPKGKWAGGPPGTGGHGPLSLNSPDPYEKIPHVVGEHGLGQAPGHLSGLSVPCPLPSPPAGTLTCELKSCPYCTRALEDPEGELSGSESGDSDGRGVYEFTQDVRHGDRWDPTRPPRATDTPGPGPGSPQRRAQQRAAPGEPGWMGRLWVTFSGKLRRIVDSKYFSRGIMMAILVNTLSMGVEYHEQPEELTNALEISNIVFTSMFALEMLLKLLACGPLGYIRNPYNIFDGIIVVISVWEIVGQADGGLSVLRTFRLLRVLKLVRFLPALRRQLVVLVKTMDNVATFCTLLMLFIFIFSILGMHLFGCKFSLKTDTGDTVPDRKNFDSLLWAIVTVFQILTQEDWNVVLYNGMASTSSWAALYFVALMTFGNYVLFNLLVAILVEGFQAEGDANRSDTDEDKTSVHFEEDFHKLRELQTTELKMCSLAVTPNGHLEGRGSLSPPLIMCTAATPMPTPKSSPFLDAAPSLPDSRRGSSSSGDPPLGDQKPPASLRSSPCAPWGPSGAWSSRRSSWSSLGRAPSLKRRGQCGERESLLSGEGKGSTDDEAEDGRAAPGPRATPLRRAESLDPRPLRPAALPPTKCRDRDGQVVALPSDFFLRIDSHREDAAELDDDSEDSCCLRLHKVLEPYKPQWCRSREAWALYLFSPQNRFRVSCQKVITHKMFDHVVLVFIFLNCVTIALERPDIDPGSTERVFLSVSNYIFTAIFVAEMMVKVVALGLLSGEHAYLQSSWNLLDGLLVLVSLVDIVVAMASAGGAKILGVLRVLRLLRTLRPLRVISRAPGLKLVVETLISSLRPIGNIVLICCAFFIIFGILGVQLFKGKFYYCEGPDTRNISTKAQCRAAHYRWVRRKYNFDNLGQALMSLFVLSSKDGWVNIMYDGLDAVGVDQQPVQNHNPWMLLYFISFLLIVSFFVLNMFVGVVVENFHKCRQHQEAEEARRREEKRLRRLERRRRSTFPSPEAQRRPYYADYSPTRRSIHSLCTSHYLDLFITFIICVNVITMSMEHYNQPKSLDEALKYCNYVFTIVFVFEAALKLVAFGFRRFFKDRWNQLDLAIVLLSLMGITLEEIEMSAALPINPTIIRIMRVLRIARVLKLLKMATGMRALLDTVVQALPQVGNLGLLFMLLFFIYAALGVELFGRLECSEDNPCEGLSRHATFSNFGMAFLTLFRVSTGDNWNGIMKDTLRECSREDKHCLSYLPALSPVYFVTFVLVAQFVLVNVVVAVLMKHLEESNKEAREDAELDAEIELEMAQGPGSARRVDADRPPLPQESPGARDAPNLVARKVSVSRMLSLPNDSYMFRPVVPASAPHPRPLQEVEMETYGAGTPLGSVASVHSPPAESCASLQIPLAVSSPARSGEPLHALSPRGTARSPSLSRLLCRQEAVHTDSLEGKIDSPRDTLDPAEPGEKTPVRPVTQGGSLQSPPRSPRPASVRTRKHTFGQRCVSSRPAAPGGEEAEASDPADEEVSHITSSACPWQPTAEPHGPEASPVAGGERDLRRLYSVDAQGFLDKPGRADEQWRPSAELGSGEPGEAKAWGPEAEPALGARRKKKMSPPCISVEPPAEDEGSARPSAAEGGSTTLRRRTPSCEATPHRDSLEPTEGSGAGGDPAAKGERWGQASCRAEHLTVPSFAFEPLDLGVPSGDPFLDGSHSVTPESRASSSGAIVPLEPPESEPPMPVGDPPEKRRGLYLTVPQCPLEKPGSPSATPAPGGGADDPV

Row | Structure (SMILES) | pIC50 | pIC50 [1]
1 | N#Cc1cc(C(=O)NCC(=O)c2ccccc2)cc2nc(C(F)(F)F)c(CC3CCC(F)(F)CC3)n12 [Compound 67, 5-Cyano-3-[(4,4-difluorocyclohexyl)methyl]-N-(2-oxo-2-phenylethyl)-2-(trifluoromethyl)imidazo[1,2-a]pyridine-7-carboxamide] | ≥ 7.00 | –
2 | Cc1cc(C(=O)NC2CC3(COC3)C2)cc2nc(C(C)(C)C)c(CC3CCC(F)(F)CC3)n12 [Compound 137, 2-tert-Butyl-3-[(4,4-difluorocyclohexyl)methyl]-5-methyl-N-(2-oxaspiro[3.3]heptan-6-yl)imidazo[1,2-a]pyridine-7-carboxamide] | ≥ 7.00 | –
3 | CC(C)(C)NC(=O)c1cc(C#N)n2c(CC3CCC(F)(F)CC3)c(C(C)(F)F)nc2c1 [Compound 225, N-tert-Butyl-5-cyano-3-[(4,4-difluorocyclohexyl)methyl]-2-(1,1-difluoroethyl)imidazo[1,2-a]pyridine-7-carboxamide] | ≥ 7.00 | –
4 | O=C(NCc1ccncc1)c1cc(Cl)n2c(CC3CCC(F)(F)CC3)c(C(F)(F)F)nc2c1 [Compound 97] | ≥ 7.00 | –
5 | N#Cc1cc(C(=O)NCCCN2CCCC2=O)cc2nc(C(F)(F)F)c(CC3CCC(F)(F)CC3)n12 [Compound 149, 5-Cyano-3-[(4,4-difluorocyclohexyl)methyl]-N-[3-(2-oxopyrrolidin-1-yl)propyl]-2-(trifluoromethyl)imidazo[1,2-a]pyridine-7-carboxamide] | – | ≥ 7.00
6 | Cc1cc(C(=O)NC2CCC3(CC2)COC3)cc2nc(C(F)(F)F)c(CC3CCC(F)(F)CC3)n12 [Compound 126, 3-[(4,4-Difluorocyclohexyl)methyl]-5-methyl-N-(2-oxaspiro[3.5]nonan-7-yl)-2-(trifluoromethyl)imidazo[1,2-a]pyridine-7-carboxamide] | – | ≥ 7.00
7 | N#Cc1cc(C(=O)N[C@H]2CC[C@H](O)CC2)cc2nc(C(F)(F)F)c(CC3CCC(F)(F)CC3)n12 [Compound 56, 5-Cyano-3-[(4,4-difluorocyclohexyl)methyl]-N-[(1R,4R)-4-hydroxycyclohexyl]-2-(trifluoromethyl)imidazo[1,2-a]pyridine-7-carboxamide] | ≥ 7.00 | –
8 | Cc1cc(C(=O)NC2CC3(COC3)C2)cc2nc(C(C)C)c(CC3CCC(F)(F)CC3)n12 [Compound 145, 3-[(4,4-Difluorocyclohexyl)methyl]-2-isopropyl-5-methyl-N-(2-oxaspiro[3.3]heptan-6-yl)imidazo[1,2-a]pyridine-7-carboxamide] | ≥ 7.00 | –
9 | [2H]C([2H])([2H])OC(C)(C)CNC(=O)c1cc(CO)n2c(CC3CCC(F)(F)CC3)c(C(C)(F)F)nc2c1 [Compound 192, 3-[(4,4-Difluorocyclohexyl)methyl]-2-(1,1-difluoroethyl)-5-(hydroxymethyl)-N-(2-methoxy-d3-2-methylpropyl)imidazo[1,2-a]pyridine-7-carboxamide] | ≥ 7.00 | –
10 | Cc1cc(C(=O)NC2CC(CO)(CO)C2)cc2nc(C(F)(F)F)c(CC3CCC(F)(F)CC3)n12 [Compound 80, N-[3,3-Bis(hydroxymethyl)cyclobutyl]-3-[(4,4-difluorocyclohexyl)methyl]-5-methyl-2-(trifluoromethyl)imidazo[1,2-a]pyridine-7-carboxamide] | ≥ 7.00 | –
11 | CCOC(=O)CNC(=O)c1cc(Cl)n2c(CC3CCC(F)(F)CC3)c(C(F)(F)F)nc2c1 [Compound 110, Ethyl 2-{5-chloro-3-[(4,4-difluorocyclohexyl)methyl]-2-(trifluoromethyl)imidazo[1,2-a]pyridine-7-carboxamide}acetate] | ≥ 7.00 | –
12 | CC(C)c1nc2cc(C(=O)NC(C)(C)C)cc(C#N)n2c1CC1CCC(F)(F)CC1 [Compound 226, N-tert-Butyl-5-cyano-3-[(4,4-difluorocyclohexyl)methyl]-2-isopropylimidazo[1,2-a]pyridine-7-carboxamide] | ≥ 7.00 | –
13 | CC(C)c1nc2cc(C(=O)NC3CC(F)(F)C3)cc(C#N)n2c1CC1CCC(F)(F)CC1 [Compound 170, 5-Cyano-N-(3,3-difluorocyclobutyl)-3-[(4,4-difluorocyclohexyl)methyl]-2-isopropylimidazo[1,2-a]pyridine-7-carboxamide] | ≥ 7.00 | –
14 | Cc1cc(C(=O)Nc2ccccc2)cc2nc(C(C)(C)O)c(CC3CCC(F)(F)CC3)n12 [Compound 8, 3-[(4,4-Difluorocyclohexyl)methyl]-2-(2-hydroxypropan-2-yl)-5-methyl-N-phenylimidazo[1,2-a]pyridine-7-carboxamide] | ≥ 7.00 | –
15 | N#Cc1cc(C(=O)NC2CCC3(CC2)COC3)cc2nc(C(F)(F)F)c(CC3CCC(F)(F)CC3)n12 [Compound 70, 5-Cyano-3-[(4,4-difluorocyclohexyl)methyl]-N-(2-oxaspiro[3.5]nonan-7-yl)-2-(trifluoromethyl)imidazo[1,2-a]pyridine-7-carboxamide] | – | ≥ 7.00
16 | CC(F)(F)c1nc2cc(C(=O)NC3CCC4(CC3)COC4)c(Cl)cn2c1CC1CCC(F)(F)CC1 [Compound 127, 6-Chloro-3-[(4,4-difluorocyclohexyl)methyl]-2-(1,1-difluoroethyl)-N-(2-oxaspiro[3.5]nonan-7-yl)imidazo[1,2-a]pyridine-7-carboxamide] | ≥ 7.00 | –

Row | Structure (SMILES) | pIC50 | pIC50 [1]
17 | Cc1cc(C(=O)NC2CCOCC2)cc2nc(C(C)C)c(Cc3ccc(Cl)cc3)n12 [Compound 224, 3-(4-Chlorobenzyl)-2-isopropyl-5-methyl-N-(tetrahydro-2H-pyran-4-yl)imidazo[1,2-a]pyridine-7-carboxamide] | ≥ 7.00 | –
18 | CC(F)(F)c1nc2cc(C(=O)NC3CCC3)c(Cl)cn2c1CC1CCC(F)(F)CC1 [Compound 22, 6-Chloro-N-cyclobutyl-3-[(4,4-difluorocyclohexyl)methyl]-2-(1,1-difluoroethyl)imidazo[1,2-a]pyridine-7-carboxamide] | ≥ 7.00 | –
19 | Cc1c(C(=O)NC2CCOCC2)cc2nc(C(F)(F)F)c(CC3CCC(F)(F)CC3)n2c1C [Compound 167, 3-[(4,4-Difluorocyclohexyl)methyl]-5,6-dimethyl-N-(tetrahydro-2H-pyran-4-yl)-2-(trifluoromethyl)imidazo[1,2-a]pyridine-7-carboxamide] | ≥ 7.00 | –
20 | Cc1cc(C(=O)NC2CC3(COC3)C2)cc2nc(C(F)(F)F)c(CC3CCC(F)(F)CC3)n12 [Compound 88, 3-[(4,4-Difluorocyclohexyl)methyl]-5-methyl-N-(2-oxaspiro[3.3]heptan-6-yl)-2-(trifluoromethyl)imidazo[1,2-a]pyridine-7-carboxamide] | ≥ 7.00 | –
21 | Cc1cc(C(=O)NC(C)(C)C)cc2nc(C(C)(F)F)c(CC3CCC(F)(F)CC3)n12 [Compound 218, N-tert-Butyl-3-[(4,4-difluorocyclohexyl)methyl]-2-(1,1-difluoroethyl)-5-methylimidazo[1,2-a]pyridine-7-carboxamide] | ≥ 7.00 | –
22 | Cc1cc(C(=O)NC2CCCOCC2)cc2nc(C(F)(F)F)c(CC3CCC(F)(F)CC3)n12 (centres unmarked) [Compound 74, 3-[(4,4-Difluorocyclohexyl)methyl]-5-methyl-N-(oxepan-4-yl)-2-(trifluoromethyl)imidazo[1,2-a]pyridine-7-carboxamide] | ≥ 7.00 | –
23 | COC1(CNC(=O)c2cc(C#N)n3c(CC4CCC(F)(F)CC4)c(C(F)(F)F)nc3c2)CCOCC1 [Compound 141, 5-Cyano-3-[(4,4-difluorocyclohexyl)methyl]-N-[(4-methoxytetrahydro-2H-pyran-4-yl)methyl]-2-(trifluoromethyl)imidazo[1,2-a]pyridine-7-carboxamide] | ≥ 7.00 | –
24 | [2H]C([2H])([2H])OC(C)(C)c1nc2cc(C(=O)NC3CCOCC3)cc(C)n2c1CC1CCC(F)(F)CC1 [Compound 11, 3-[(4,4-Difluorocyclohexyl)methyl]-2-(2-methoxy-d3-propan-2-yl)-5-methyl-N-(tetrahydro-2H-pyran-4-yl)imidazo[1,2-a]pyridine-7-carboxamide] | ≥ 7.00 | –
25 | O=C(NCc1ccccn1)c1cc(Cl)n2c(CC3CCC(F)(F)CC3)c(C(F)(F)F)nc2c1 [Compound 106] | ≥ 7.00 | –
26 | CC(C)(Oc1ccccc1)c1c(C(F)(F)F)nc2cc(C(=O)Nc3ccccc3)ccn12 [Compound 163, 3-(2-Phenoxypropan-2-yl)-N-phenyl-2-(trifluoromethyl)imidazo[1,2-a]pyridine-7-carboxamide] | – | ≥ 7.00
27 | C#Cc1cc(C(=O)NC2CCOCC2)cc2nc(C(F)(F)F)c(CC3CCC(F)(F)CC3)n12 [Compound 50, 3-[(4,4-Difluorocyclohexyl)methyl]-5-ethynyl-N-(tetrahydro-2H-pyran-4-yl)-2-(trifluoromethyl)imidazo[1,2-a]pyridine-7-carboxamide] | – | ≥ 7.00
28 | O=C(NCc1ccccc1)c1cc(Cl)n2c(CC3CCC(F)(F)CC3)c(C(F)(F)F)nc2c1 [Compound 98, N-Benzyl-5-chloro-3-[(4,4-difluorocyclohexyl)methyl]-2-(trifluoromethyl)imidazo[1,2-a]pyridine-7-carboxamide] | ≥ 7.00 | –
29 | Cc1cc(C(=O)NC2CCC(F)(F)CC2)cc2nc(C(C)(C)O)c(CC3CCC(F)(F)CC3)n12 [Compound 9, N-(4,4-Difluorocyclohexyl)-3-[(4,4-difluorocyclohexyl)methyl]-2-(2-hydroxypropan-2-yl)-5-methylimidazo[1,2-a]pyridine-7-carboxamide] | – | ≥ 7.00
30 | Cc1cc(C(=O)C(O)C2CCOCC2)cc2nc(C(F)(F)F)c(CC3CCC(F)(F)CC3)n12 (centres unmarked) [Compound 83, 1-{3-[(4,4-Difluorocyclohexyl)methyl]-5-methyl-2-(trifluoromethyl)imidazo[1,2-a]pyridin-7-yl}-2-hydroxy-2-(tetrahydro-2H-pyran-4-yl)ethanone] | – | ≥ 7.00
31 | N#Cc1cc(C(=O)NCC2CCOC2)cc2nc(C(F)(F)F)c(CC3CCC(F)(F)CC3)n12 (centres unmarked) [Compound 3, 5-Cyano-3-[(4,4-difluorocyclohexyl)methyl]-N-[(tetrahydrofuran-3-yl)methyl]-2-(trifluoromethyl)imidazo[1,2-a]pyridine-7-carboxamide] | ≥ 7.00 | –
32 | CC(C)(C)c1nc2cc(C(=O)NC3CC4(COC4)C3)c(Cl)cn2c1CC1CCC(F)(F)CC1 [Compound 148, 2-tert-Butyl-6-chloro-3-[(4,4-difluorocyclohexyl)methyl]-N-(2-oxaspiro[3.3]heptane-6-yl)imidazo[1,2-a]pyridine-7-carboxamide] | ≥ 7.00 | –
